Source: US12365655B2, “Compounds” (CTXT PTY LTD, priority 2018, dated 2025)

Legend:
TIP60-KAT5 = TIP60-KAT5 (Homo sapiens, UniProt Q92993); assay: Acetyltransferase biochemical assay (AlphaScreen), KAT5
MOF-KAT8 = biological target: T1, MOF-KAT8 (Homo sapiens, UniProt Q9H7Z6); assay: biochemical
T1 sequence (Q9H7Z6 with tags, fused parts or gaps): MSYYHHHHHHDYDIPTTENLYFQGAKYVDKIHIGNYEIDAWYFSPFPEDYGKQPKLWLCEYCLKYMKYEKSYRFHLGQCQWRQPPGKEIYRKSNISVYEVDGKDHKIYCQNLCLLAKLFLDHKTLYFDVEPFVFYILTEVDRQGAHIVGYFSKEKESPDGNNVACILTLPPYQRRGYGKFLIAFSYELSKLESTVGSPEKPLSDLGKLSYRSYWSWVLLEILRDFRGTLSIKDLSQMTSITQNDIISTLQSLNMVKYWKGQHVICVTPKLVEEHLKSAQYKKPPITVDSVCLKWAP

HBO-KAT7 = HBO-KAT7 (Homo sapiens, UniProt O95251); assay: Acetyltransferase biochemical assay (AlphaScreen), KAT7
HBO-KAT7, sequence (O95251 with tags, fused parts or gaps): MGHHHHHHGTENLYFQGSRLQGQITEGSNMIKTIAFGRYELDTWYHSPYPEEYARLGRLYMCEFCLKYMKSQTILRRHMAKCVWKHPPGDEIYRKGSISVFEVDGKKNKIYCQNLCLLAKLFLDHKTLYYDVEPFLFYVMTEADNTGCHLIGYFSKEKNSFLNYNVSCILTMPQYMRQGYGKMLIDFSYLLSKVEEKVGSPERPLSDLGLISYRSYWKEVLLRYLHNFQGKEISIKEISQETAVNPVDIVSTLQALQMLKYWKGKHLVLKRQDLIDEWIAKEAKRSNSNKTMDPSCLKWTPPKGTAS

MOZ-KAT6A = MOZ-KAT6A (Homo sapiens, UniProt Q92794, A567V); assay: Acetyltransferase biochemical assay (AlphaScreen), KAT6A
MOZ-KAT6A, sequence (Q92794 with tags, fused parts or gaps A567V): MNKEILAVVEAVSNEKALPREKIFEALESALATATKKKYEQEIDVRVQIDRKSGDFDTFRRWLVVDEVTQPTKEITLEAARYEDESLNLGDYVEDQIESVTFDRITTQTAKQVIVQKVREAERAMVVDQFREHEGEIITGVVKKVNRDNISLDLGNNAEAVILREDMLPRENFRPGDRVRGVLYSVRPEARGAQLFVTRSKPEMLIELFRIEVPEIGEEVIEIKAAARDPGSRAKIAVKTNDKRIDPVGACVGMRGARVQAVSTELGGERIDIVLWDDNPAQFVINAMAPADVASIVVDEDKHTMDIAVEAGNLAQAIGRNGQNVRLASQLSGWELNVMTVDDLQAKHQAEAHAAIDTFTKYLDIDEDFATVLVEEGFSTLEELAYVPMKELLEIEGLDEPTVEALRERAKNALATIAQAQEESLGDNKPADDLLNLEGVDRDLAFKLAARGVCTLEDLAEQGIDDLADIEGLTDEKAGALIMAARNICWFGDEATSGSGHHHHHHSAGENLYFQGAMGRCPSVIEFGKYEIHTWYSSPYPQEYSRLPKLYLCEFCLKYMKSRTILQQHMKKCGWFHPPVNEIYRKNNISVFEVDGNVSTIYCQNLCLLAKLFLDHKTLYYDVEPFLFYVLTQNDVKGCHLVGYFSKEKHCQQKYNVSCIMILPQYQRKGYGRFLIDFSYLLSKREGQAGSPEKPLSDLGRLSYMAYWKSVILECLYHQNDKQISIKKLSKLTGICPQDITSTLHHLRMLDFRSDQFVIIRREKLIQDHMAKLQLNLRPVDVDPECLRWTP

TIP60-KAT5, sequence (Q92993 with tags, fused parts or gaps isoform Q92993-2): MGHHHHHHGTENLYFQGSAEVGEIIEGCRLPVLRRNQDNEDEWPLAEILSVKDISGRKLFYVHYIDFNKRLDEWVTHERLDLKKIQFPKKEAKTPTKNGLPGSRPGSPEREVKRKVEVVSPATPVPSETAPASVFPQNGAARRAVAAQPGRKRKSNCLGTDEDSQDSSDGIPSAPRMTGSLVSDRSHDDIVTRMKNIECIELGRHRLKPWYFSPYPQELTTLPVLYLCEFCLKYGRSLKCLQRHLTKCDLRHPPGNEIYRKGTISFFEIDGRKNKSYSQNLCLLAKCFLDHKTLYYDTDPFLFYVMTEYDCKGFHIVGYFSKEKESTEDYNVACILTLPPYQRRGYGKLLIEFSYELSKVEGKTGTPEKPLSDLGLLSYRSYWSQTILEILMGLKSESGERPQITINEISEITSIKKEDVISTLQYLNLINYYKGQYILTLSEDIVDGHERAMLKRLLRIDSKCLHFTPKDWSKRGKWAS

In the case of O=S(=O)(Nc1noc2cccc(Cl)c12)c1ccccc1-c1cnco1 [Example 11, N-(4-chlorobenzo [d]isoxazol-3-yl)-2-(oxazol-5-yl)benzenesulfonamide], the IC50 (TIP60-KAT5) is reported as > 125 µM, the IC50 (MOF-KAT8) is reported as 35.6 µM and the IC50 (HBO-KAT7) is reported as 60.5 µM. For the same compound, the IC50 (MOZ-KAT6A) was > 125 µM.

In the case of Cc1ncc(-c2ccc(C)c(S(=O)(=O)Nc3noc4cccc(Cl)c34)c2)o1 [Example 18, N-(4-chlorobenzo [d]isoxazol-3-yl)-2-methyl-5-(2-methyloxazol-5-yl)benzenesulfonamide], the IC50 (TIP60-KAT5) is reported as 118 µM, the IC50 (MOF-KAT8) is reported as 63.5 µM and the IC50 (HBO-KAT7) is reported as 34.1 µM. For the same compound, the IC50 (MOZ-KAT6A) was 74.9 µM.

With Cc1ccc(-c2ccno2)cc1S(=O)(=O)Nc1noc2cccc(Cl)c12 [Example 19, N-(4-chlorobenzo [d]isoxazol-3-yl)-5-(isoxazol-5-yl)-2-methylbenzenesulfonamide] the IC50 (TIP60-KAT5) was 65 µM, the IC50 (MOF-KAT8) was 41 µM and the IC50 (HBO-KAT7) was 36.1 µM. It also gave an IC50 (MOZ-KAT6A) of 32.2 µM.

Work on Cc1ccc(-n2cccn2)cc1S(=O)(=O)Nc1noc2cccc(Cl)c12 [Example 20, N-(4-chlorobenzo [d]isoxazol-3-yl)-2-methyl-5-(1H-pyrazol-1-yl)benzenesulfonamide] yielded an IC50 (TIP60-KAT5) of 81.5 µM, an IC50 (MOF-KAT8) of 61.4 µM and an IC50 (HBO-KAT7) of 41.3 µM. It also gave an IC50 (MOZ-KAT6A) of 29.4 µM.

With CS(=O)(=O)c1ccc(S(=O)(=O)Nc2noc3cccc(Cl)c23)cc1 [Example 21, N-(4-chlorobenzo [d]isoxazol-3-yl)-4-(methylsulfonyl) benzenesulfonamide] the IC50 (TIP60-KAT5) was > 125 µM, the IC50 (MOF-KAT8) was 39.7 µM and the IC50 (HBO-KAT7) was 25.5 µM. The IC50 (MOZ-KAT6A) was 24.8 µM.

With O=S(=O)(Nc1noc2cccc(Cl)c12)c1ccc(Cl)cc1 [Example 26, 4-chloro-N-(4-chlorobenzo[d]isoxazol-3-yl)benzenesulfonamide] the IC50 (TIP60-KAT5) was > 125 µM, the IC50 (MOF-KAT8) was 29.5 µM and the IC50 (HBO-KAT7) was 34.5 µM. The IC50 (MOZ-KAT6A) was 60.1 µM.

COc1cccc2onc(NS(=O)(=O)c3cccc4ccoc34)c12 [Example 81, N-(4-methoxybenzo[d]isoxazol-3-yl)benzofuran-7-sulfonamide] gave an IC50 (TIP60-KAT5) of 31.5 µM, an IC50 (MOF-KAT8) of 9.43 µM and an IC50 (HBO-KAT7) of 6.73 µM. The IC50 (MOZ-KAT6A) was 43.6 µM.

COc1cccc(OC)c1S(=O)(=O)Nc1noc2cc(C(C)OC)cc(OC)c12 (centres unmarked) [Example 93, 2,6-Dimethoxy-N-(4-methoxy-6-(1-methoxyethyl)benzo[d]isoxazol-3-yl)benzenesulfonamide] showed an IC50 (TIP60-KAT5) of 53.1 µM, an IC50 (MOF-KAT8) of 96.5 µM and an IC50 (HBO-KAT7) of 2.8 µM. For the same compound, the IC50 (MOZ-KAT6A) was 0.181 µM.

CCc1ccc(OC)c(S(=O)(=O)Nc2noc3cccc(OC)c23)c1OC [Example 94, 3-Ethyl-2,6-dimethoxy-N-(4-methoxybenzo[d]isoxazol-3-yl)benzenesulfonamide] was tested, and the IC50 (TIP60-KAT5) was 124 µM, the IC50 (MOF-KAT8) was 60.9 µM and the IC50 (HBO-KAT7) was 16.1 µM. For the same compound, the IC50 (MOZ-KAT6A) was 6.11 µM.

COc1cccc(OC)c1S(=O)(=O)Nc1noc2ccc(OC(F)(F)F)cc12 [Example 100, 2,6-Dimethoxy-N-(5-(trifluoromethoxy)benzo [d]isoxazol-3-yl)benzenesulfonamide] gave an IC50 (TIP60-KAT5) of 51.7 µM, an IC50 (MOF-KAT8) of 62.6 µM and an IC50 (HBO-KAT7) of 2.24 µM. For the same compound, the IC50 (MOZ-KAT6A) was 0.972 µM.

CCc1cc(S(=O)(=O)Nc2noc3cccc(Cl)c23)c(=O)n(C)c1 [Example 107, N-(4-Chlorobenzo[d]isoxazol-3-yl)-5-ethyl-1-methyl-2-oxo-1,2-dihydropyridine-3-sulfonamide] gave an IC50 (TIP60-KAT5) of 74.1 µM, an IC50 (MOF-KAT8) of 42.1 µM and an IC50 (HBO-KAT7) of 11.7 µM. The IC50 (MOZ-KAT6A) was 14.9 µM.

CCOc1ccc2onc(NS(=O)(=O)c3cc(CC)ccc3OC)c2c1 [Example 109] showed an IC50 (TIP60-KAT5) of 69.3 µM, an IC50 (MOF-KAT8) of 9.12 µM and an IC50 (HBO-KAT7) of 4.07 µM. The IC50 (MOZ-KAT6A) was 1.21 µM.

With CCc1ccc(OC)c(S(=O)(=O)Nc2noc3ccc(OC)cc23)c1 [Example 111, 5-Ethyl-2-methoxy-N-(5-methoxybenzo[d]isoxazol-3-yl)benzenesulfonamide] the IC50 (TIP60-KAT5) was 26.6 µM, the IC50 (MOF-KAT8) was 3.22 µM and the IC50 (HBO-KAT7) was 4.54 µM. For the same compound, the IC50 (MOZ-KAT6A) was 0.842 µM.

CCOc1cccc2c(NS(=O)(=O)c3cc(CC)ccc3OC)noc12 [Example 132] showed an IC50 (TIP60-KAT5) of 53 µM, an IC50 (MOF-KAT8) of 15.3 µM and an IC50 (HBO-KAT7) of 11.8 µM. For the same compound, the IC50 (MOZ-KAT6A) was 7.45 µM.
